From patent publication US12018305B2, “Process for production of nigericin from Streptomyces sp. MCC-0151” (Council of Scientific & Industrial Research, priority 2018, dated 2024)
Values after ≈ are worked out from the molar mass of the structure shown. Where two headings read alike, the source gives them in different places.

How the values were obtained:
[1] = test system: Staphylococcus aureus (ATCC 29737); assay: Antibacterial activity (MIC) against Staphylococcus aureus; type: cell-based
Excerpt: (§1) FIG. 1A depicts the inhibition of S. aureus growth at varying concentrations of nigericin from Streptomyces sp. MCC-0151. FIG. 1B depicts the antibacterial activity of nigericin from Streptomyces sp. MCC0151 against S. aureus.

[2] = test system: Staphylococcus epidermidis (ATCC 12228); assay: Antibacterial activity (MIC) against Staphylococcus epidermidis; type: cell-based; conditions: ATCC12228, range stated over five gram-positive microorganisms, read-out: minimum inhibitory concentration (MIC)
[3] = test system: Micrococcus luteus (ATCC 11880); assay: Antibacterial activity (MIC) against Micrococcus luteus; type: cell-based; conditions: ATCC11880, range stated over five gram-positive microorganisms, read-out: minimum inhibitory concentration (MIC)
Excerpt: as §1

[4] = test system: Bacillus cereus (ATCC 11778); assay: Antibacterial activity (MIC) against Bacillus cereus; type: cell-based; conditions: ATCC11778, range stated over five gram-positive microorganisms, read-out: minimum inhibitory concentration (MIC)
[5] = test system: Listeria monocytogenes (ATCC 19111); assay: Antibacterial activity (MIC) against Listeria monocytogenes; type: cell-based; conditions: ATCC19111, range stated over five gram-positive microorganisms, read-out: minimum inhibitory concentration (MIC)
Excerpt: as §1

P. falciparum strain 3D7 = assay: Antimalarial activity: inhibition of blood-stage malaria parasite growth (SybrGreen I); type: cell-based; conditions: Plasmodium falciparum, 60 h incubation
Experimental: Asexual stage of P. falciparum strain 3D7 (received as a gift from collaborator team) was maintained under standard conditions at 2% hematocrit with 0+ human erythrocytes (Blood obtained from Poona Serological Trust Blood Bank, Pune) in RPMI1640 containing 15 mM HEPES, 50 mg/L Gentamicin sulfate 10 mg/L hypoxanthine, 2 g/L sodium bicarbonate (Sigma-Aldrich) and 2.5 g/L AlbuMAX II (Thermo Fisher Scientific). Parasites were synchronized using 5% sorbitol (Sigma-Aldrich) for the enrichment of ring-stage parasite. In brief, P. falciparum cultures were collected by centrifugation at 1,000 g for 5 min at 25° C. and the parasitized RBC pellet was resuspended 5% sorbitol, followed by incubation at 37° C. for 10 min. Following incubation, the cells were pelleted and washed with complete medium, prior to placing the parasites back into culture flasks at 2% hematocrit and 2% parasitemia.
Assays were typically set up in 96-well plate format and 2% of parasitized culture was used per well. The stock solution of the nigericin was prepared in DMSO, and so 0.5% DMSO (equivalent to the DMSO present in the nigericin-treated samples) treatment was used as a control. […]

murine splenocytes = type: cell-based
Excerpt: FIG. 3 depicts a comparison of the in-vitro toxicity of nigericin isolated from Streptomyces sp. MCC-0151 and commercially available Nigericin on murine splenocytes. ‘▴’ represents nigericin from Streptomyces sp. MCC 0151 and ‘▾’ represents standard Nigericin.
MCCO151 and Sigma standard nigericin. Nigericin produced from Streptomyces sp.

in vivo = assay: in vivo; parameters: species or system Sprague Dawley rats; conditions: male, Sprague Dawley, rat
Experimental: Oral solution bioavailability was 2%.
Plasma Pharmacokinetics study of Nigericin was carried out using three different routes of administration i.e. Intravenous (IV), Oral (O) and Intraperitoneal (IP). Based on above study, the intraperitoneal route of administration was selected to study the toxicokinetic profiling of Nigericin.

[6] = Toxicokinetic study, 14-day repeated intraperitoneal administration in Sprague-Dawley rats; type: in vivo; conditions: for Tmax / AUClast / Cmax / AUC(0-t) / Cmax at 14 day / Tmax at 14 day: Sprague-Dawley, ip; for AUC(0-t): AUClast
Experimental: (§2) A 14-day repeat-intraperitoneal administration protocol was used for carrying out toxicokinetic studies with nigericin. Male and female animals were divided into three groups each based on the dose of nigericin administered (0.5, 1.5 and 5 mg/kg/day). Each group received the administration of the compound at the same dose every day for 14 days. The toxicokinetic parameters were quantified following the first (i.e., day-1) and last (i.e., day-14) administration of nigericin, and the findings are tabulated in Table-3. Following administration on day-1, nigericin was quantifiable in the plasma of the animals for up to 24 h, in all three dose-categories, in both genders. After the administration of the second dose on day-14, plasma concentrations were quantifiable up to 8 h for 0.5 mg/kg/day dose category and up to 24 h for 1.5 mg/kg/day dose category, in both genders.

Sprague-Dawley rats = assay: 14-day repeated intraperitoneal dose toxicity in Sprague-Dawley rats; type: in vivo; conditions: for mortality: female rats, 5 mg/kg/day IP, before Day 14, 5 mg/kg/day
Experimental: as §2
The 5 mg/kg/day was lethal in females.

[7] = female, rat, in vivo, 0.5 mg/kg/day
[8] = female, rat, in vivo, 1.5 mg/kg/day
[9] = male, rat, in vivo, 0.5 mg/kg/day, Cmax
[10] = male, rat, in vivo, 0.5 mg/kg/day, Tmax
[11] = male, rat, in vivo, 1.5 mg/kg/day
[12] = male, rat, in vivo, 1.5 mg/kg/day, Cmax
[13] = male, rat, in vivo, 1.5 mg/kg/day, Tmax
[14] = male, rat, in vivo, 5 mg/kg/day
[15] = male, rat, in vivo, 5 mg/kg/day, Cmax
[16] = male, rat, in vivo, 5 mg/kg/day, Tmax
[17] = 14-day repeated IP, conclusion of study

CO[C@@H]1C[C@@H](C[C@H]2CC[C@H](C)[C@H]([C@@H](C)C(=O)O)O2)O[C@]2(O[C@](C)([C@H]3CC[C@@](C)([C@@H]4O[C@@H]([C@H]5O[C@@](O)(CO)[C@H](C)C[C@@H]5C)C[C@@H]4C)O3)C[C@H]2C)[C@@H]1C [nigericin]
MIC ([1]; ATCC29737, against Staphylococcus aureus, read-out: MIC): 0.21 µg/mL | MIC ([1]; ATCC29737, against Staphylococcus aureus, read-out: MIC Conc.): 0.288 µM | MIC ([1]; Staphylococcus aureus, ATCC29737, range stated over five gram-positive microorganisms, read-out: minimum inhibitory concentration (MIC)): 0.25 to 0.5 µM | MIC ([1]; against Staphylococcus aureus, read-out: MIC): 0.21 µg/mL | MIC [2]: 0.25 to 0.5 µM (≈ 0.181 to 0.362 µg/mL) | MIC [3]: 0.25 to 0.5 µM (≈ 0.181 to 0.362 µg/mL) | MIC [4]: 0.25 to 0.5 µM (≈ 0.181 to 0.362 µg/mL) | MIC [5]: 0.25 to 0.5 µM (≈ 0.181 to 0.362 µg/mL) | IC50 (P. falciparum strain 3D7; read-out: IC50 against P. falciparum): ~0.986 nM | EC50 (P. falciparum strain 3D7; blood-stage parasite growth, n=3): 2.4 nM | toxicity against murine splenocytes compared to commercially available nigericin (Sigma) (murine splenocytes): no statistically significant difference | Tmax (in vivo; ip, 2 mg/kg): 15 min | plasma concentrations quantifiable up to (in vivo; ip, 2 mg/kg): up to 24 hr | Vss relative to normal volume of total body water (0.7 L/kg) (in vivo; iv, 2 mg/kg): 2.3 fold | clearance (in vivo; iv, 2 mg/kg): 15.1 mL/min/kg | half-life (in vivo; iv, 2 mg/kg): 212 min | Tmax (in vivo; po, 10 mg/kg): 37.8 min | bioavailability (in vivo; po, 10 mg/kg): 2% | plasma concentrations quantifiable up to (in vivo; po, 10 mg/kg): up to 24 hr | male/female exposure ratio (AUClast) ([6]; Day 1, 0.5 mg/kg/day): 2.11 | male/female exposure ratio (AUClast) ([6]; Day 1, 1.5 mg/kg/day): 0.68 | male/female exposure ratio (AUClast) ([6]; Day 1, 5 mg/kg/day): 1.15 | male/female exposure ratio (AUClast) ([6]; Day 14, 0.5 mg/kg/day): 0.90 | male/female exposure ratio (AUClast) ([6]; Day 14, 1.5 mg/kg/day): 1.21 | Tmax ([6]; rat, in vivo, Mean Tmax across the doses): 4.8 to 25.2 min | accumulation following repeated intraperitoneal dose administration ([6]; across the doses, both genders): No trend of accumulation | quantifiable in plasma for up to ([6]; day-1, all three doses (0.5, 1.5, 5 mg/kg/day IP), both genders): up to 24 h | accumulation ratio (AUClast) on Day 14 ([6]; female, 0.5 mg/kg/day): 1.04 | accumulation ratio (AUClast) on Day 14 ([6]; female, 1.5 mg/kg/day): 0.51 | Dose exposure ratio ([6]; female, Day 1, dose increase 0.5 to 1.5 mg/kg/day): 5.91 | Dose exposure ratio ([6]; female, Day 1, dose increase 1.5 to 5 mg/kg/day): 2.33 | Dose exposure ratio ([6]; female, Day 14, dose increase 0.5 to 1.5 mg/kg/day): 2.89 | AUClast [6, 7]: 549.87 ng·h/mL | Cmax [6, 7]: 222.17 ng/mL | AUC(0-t) [6, 7]: 527 ng·h/mL | Cmax ([6]; female, rat, in vivo, 0.5 mg/kg/day, Cmax): 188 ng/mL | Tmax ([6]; female, rat, in vivo, 0.5 mg/kg/day, Tmax): 19.8 min | AUClast [6, 8]: 1589.38 ng·h/mL | Cmax [6, 8]: 710.63 ng/mL | AUC(0-t) [6, 8]: 3120 ng·h/mL | Cmax ([6]; female, rat, in vivo, 1.5 mg/kg/day, Cmax): 840 ng/mL | AUC(0-t) ([6]; female, rat, in vivo, 5 mg/kg/day): 7260 ng·h/mL | Cmax ([6]; female, rat, in vivo, 5 mg/kg/day, Cmax): 2440 ng/mL | Tmax ([6]; female, rat, in vivo, 5 mg/kg/day, Tmax): 19.8 min | accumulation ratio (AUClast) on Day 14 ([6]; male, 0.5 mg/kg/day): 0.44 | accumulation ratio (AUClast) on Day 14 ([6]; male, 1.5 mg/kg/day): 0.90 | accumulation ratio (AUClast) on Day 14 ([6]; male, 5 mg/kg/day): 0.98 | Dose exposure ratio ([6]; male, Day 1, dose increase 0.5 to 1.5 mg/kg/day): 1.91 | Dose exposure ratio ([6]; male, Day 1, dose increase 1.5 to 5 mg/kg/day): 3.93 | Dose exposure ratio ([6]; male, Day 14, dose increase 0.5 to 1.5 mg/kg/day): 3.89 | Dose exposure ratio ([6]; male, Day 14, dose increase 1.5 to 5 mg/kg/day): 4.26 | Cmax [6, 9]: 403 ng/mL | Cmax at 14 day [6, 9]: 200 ng/mL | Tmax [6, 10]: 15 min | Tmax at 14 day [6, 10]: 16.8 min | AUClast [6, 11]: 2126.23 ng·h/mL | AUC(0-t) [6, 11]: 1920 ng·h/mL | Cmax [6, 12]: 830 ng/mL | Cmax at 14 day [6, 12]: 815 ng/mL | Tmax [6, 13]: 19.8 min | Tmax at 14 day [6, 13]: 4.8 min | AUClast [6, 14]: 8347.82 ng·h/mL | AUC(0-t) [6, 14]: 8190 ng·h/mL | Cmax [6, 15]: 2390 ng/mL | Cmax at 14 day [6, 15]: 3060 ng/mL | Tmax [6, 16]: 19.8 min | Tmax at 14 day [6, 16]: 19.8 min | plasma exposure (AUClast) with increase in dose ([6]; rat, in vivo): dose-related increase | abnormal clinical signs (Sprague-Dawley rats; 0.5 mg/kg/day IP, 14 consecutive days): did not result in abnormal clinical signs | dose that can be lethal (Sprague-Dawley rats; [17]): above 5 mg/kg | dose that will not cause any clinical adversity (Sprague-Dawley rats; [17]): < 1.5 mg/kg | mortality (Sprague-Dawley rats): Mortality was observed | mortality (Sprague-Dawley rats; listed as Nigericin): lethal | mortalities (Sprague-Dawley rats; up to 1.5 mg/kg/day IP, 14 consecutive days): did not result in | effect on ophthalmoscopy, coagulation, urinalysis and reticulocytes count (Sprague-Dawley rats; up to highest surviving dose 1.5 mg/kg/day IP): no test item related effect
